# Experimental data from US10258603B2 (priority 2014, dated 2019).
# Biological target: T1, BRD9 (Homo sapiens, UniProt Q9H8M2)
# T1 construct: 134-239 was cloned, expressed, and purified to homogeneity; Flag; made in house
# T1 sequence (Q9H8M2 134-239 limits assumed): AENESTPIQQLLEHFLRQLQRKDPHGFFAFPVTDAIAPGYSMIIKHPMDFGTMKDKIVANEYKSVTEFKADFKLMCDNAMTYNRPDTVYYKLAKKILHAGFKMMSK
# Experiment: BRD9 AlphaLisa Binding Assay
# Method: IC50 Measurements for Inhibitors Using BRD9 AlphaLisa Binding Assay His/Flag epitope tagged BRD9134-239 was cloned, expressed, and purified to homogeneity. […] After 20 minutes incubation at room temperature AlphaLisa Streptavidin Acceptor Beads (Perkin-A[…]) and AlphaLisa Nickel donor beads (Perkin AS 10 ID) were added to a final concentration of 15 ug/mL each.
row,IC50 [nM],Structure (SMILES)
1,790,"Cn1cc(C(=O)NCCN2CCCCC2)c2cc[nH]c2c1=O [Example 5, 6-methyl-7-oxo-N-[2-(1-piperidyl)ethyl]-1H-pyrrolo[2,3-c]pyridine-4-carboxamide]"
2,1500,"CN1CCC(NC(=O)c2cn(C)c(=O)c3[nH]ccc23)C1 (stereo not drawn) [Example 6, 6-methyl-N-(1-methylpyrrolidin-3-yl)-7-oxo-1H-pyrrolo[2,3-c]pyridine-4-carboxamide]"
3,990,"CN1CCCC1CCNC(=O)c1cn(C)c(=O)c2[nH]ccc12 (stereo not drawn) [Example 7, 6-methyl-N-[2-(1-methylpyrrolidin-2-yl)ethyl]-7-oxo-1H-pyrrolo[2,3-c]pyridine-4-carboxamide]"
4,920,"CC=CCn1cc(C(=O)NCCCN2CCN(C)CC2)c2cc[nH]c2c1=O [Example 9, 6-but-2-enyl-N-[3-(4-methylpiperazin-1-yl)propyl]-7-oxo-1H-pyrrolo[2,3-c]pyridine-4-carboxamide]"
5,5400,"CC=CCn1cc(C(=O)NCC2CCN(C)CC2)c2cc[nH]c2c1=O [Example 11, 6-but-2-enyl-N-[(1-methyl-4-piperidyl)methyl]-7-oxo-1H-pyrrolo[2,3-c]pyridine-4-carboxamide]"
6,840,"CC=CCn1cc(C(=O)NCCN2CCN(C)CC2)c2cc[nH]c2c1=O [Example 12, 6-but-2-enyl-N-[2-(4-methylpiperazin-1-yl)ethyl]-7-oxo-1H-pyrrolo[2,3-c]pyridine-4-carboxamide]"
7,2100,"CC=CCn1cc(C(=O)NC2(C)CCCCC2)c2cc[nH]c2c1=O [Example 18, 6-but-2-enyl-N-(1-methylcyclohexyl)-7-oxo-1H-pyrrolo[2,3-c]pyridine-4-carboxamide]"
8,75,"CC=CCn1cc(C(=O)NCCC2CCN(C(=O)OCc3ccccc3)C2)c2cc[nH]c2c1=O (stereo not drawn) [Example 19, benzyl 3-[2-[(6-but-2-enyl-7-oxo-1H-pyrrolo[2,3-c]pyridine-4-carbonyl)amino]ethyl]pyrrolidine-1-carboxylate]"
9,7300,"CN(C(=O)c1cn(C)c(=O)c2[nH]ccc12)C1CCN(Cc2ccccc2)C1 (stereo not drawn) [Example 22, N-(1-benzylpyrrolidin-3-yl)-N,6-dimethyl-7-oxo-1H-pyrrolo[2,3-c]pyridine-4-carboxamide]"
10,5400,"CC1CC(C)CN(CCNC(=O)c2cn(C)c(=O)c3[nH]ccc23)C1 (stereo not drawn) [Example 33, N-[2-(3.5-dimethyl-1-piperidyl)ethyl]-6-methyl-7-oxo-1H-pyrrolo[2,3-c]pyridine-4-carboxamide]"
11,2200,"CN1CCN(CCCNC(=O)c2cn(C)c(=O)c3[nH]ccc23)CC1 [Example 34, 6-methyl-N-[3-(4-methylpiperazin-1-yl)propyl]-7-oxo-1H-pyrrolo[2,3-c]pyridine-4-carboxamide]"
12,11000,"Cn1cc(C(=O)NC(C)(C)CN2CCOCC2)c2cc[nH]c2c1=O [Example 35, N-(1,1-dimethyl-2-morpholino-ethyl)-6-methyl-7-oxo-1H-pyrrolo[2,3-c]pyridine-4-carboxamide]"
13,8000,"CN1CCN(C(=O)c2cn(C)c(=O)c3[nH]ccc23)CC1 [Example 38, 6-methyl-4-(4-methylpiperazine-1-carbonyl)-1H-pyrrolo[2,3-c]pyridin-7-one]"
14,6100,"CC1CCCN(CCNC(=O)c2cn(C)c(=O)c3[nH]ccc23)C1 (stereo not drawn) [Example 45, 6-methyl-N-[2-(3-methyl-1-piperidyl)ethyl]-7-oxo-1H-pyrrolo[2,3-c]pyridine-4-carboxamide]"
15,570,Cn1cc(C(=O)N2CCCC2c2ccccc2)c2cc[nH]c2c1=O (stereo not drawn) [Example 85]
16,160,Cn1cc(C(=O)NCC2CCCCC2)c2cc[nH]c2c1=O [Example 86]
17,1000,CN(Cc1ccccc1)C(=O)c1cn(C)c(=O)c2[nH]ccc12 [Example 87]
18,1500,Cn1cc(C(=O)N2CCNc3ccccc3C2)c2cc[nH]c2c1=O [Example 88]
19,4100,Cn1cc(C(=O)N2CCC(c3ccccc3)C2)c2cc[nH]c2c1=O (stereo not drawn) [Example 89]

row,IC50 [nM],Structure (SMILES)
1,300,Cn1cc(C(=O)N[C@H](C(N)=O)c2ccccc2)c2cc[nH]c2c1=O [Example 90]
2,200,Cn1cc(C(=O)NC(c2ccccc2)c2ccccc2)c2cc[nH]c2c1=O [Example 91]
3,490,Cn1cc(C(=O)N[C@@H](C(N)=O)c2ccccc2)c2cc[nH]c2c1=O [Example 97]
4,550,CC(C)[C@H](NC(=O)c1cn(C)c(=O)c2[nH]ccc12)C(N)=O [Example 98]
5,860,Cn1cc(C(=O)NCC2CCOC2)c2cc[nH]c2c1=O (stereo not drawn) [Example 102]
6,490,Cn1cc(C(=O)NCC2CCCCCC2)c2cc[nH]c2c1=O [Example 103]
7,980,Cn1cc(C(=O)NC2CCOC2)c2cc[nH]c2c1=O (stereo not drawn) [Example 104]
8,240,CC(NC(=O)c1cn(C)c(=O)c2[nH]ccc12)C1CC2CCC1C2 (stereo not drawn) [Example 106]
9,3400,Cn1cc(C(=O)N[C@H](c2ccccc2)[C@@H](O)c2ccccc2)c2cc[nH]c2c1=O [Example 107]
10,200,Cn1cc(C(=O)NCC2COc3ccccc3C2)c2cc[nH]c2c1=O (stereo not drawn) [Example 108]
11,270,Cn1cc(C(=O)NC2CCN(C(=O)OC(C)(C)C)C2)c2cc[nH]c2c1=O (stereo not drawn) [Example 109]
12,850,Cn1cc(C(=O)NCC2Cc3ccccc3O2)c2cc[nH]c2c1=O (stereo not drawn) [Example 110]
13,240,Cn1cc(C(=O)NCC2COc3ccccc3O2)c2cc[nH]c2c1=O (stereo not drawn) [Example 111]
14,460,CC(NC(=O)c1cn(C)c(=O)c2[nH]ccc12)C1CC1 (stereo not drawn) [Example 112]
15,73,Cn1cc(C(=O)NCc2cccc3ccccc23)c2cc[nH]c2c1=O [Example 114]
16,640,CC(NC(=O)c1cn(C)c(=O)c2[nH]ccc12)c1ccncc1 (stereo not drawn) [Example 115]
17,240,CC(NC(=O)c1cn(C)c(=O)c2[nH]ccc12)c1ccccc1Cl (stereo not drawn) [Example 118]
18,440,CC(NC(=O)c1cn(C)c(=O)c2[nH]ccc12)c1ccc2c(c1)OCCO2 (stereo not drawn) [Example 120]
19,100,Cn1cc(C(=O)NC2COCc3ccccc32)c2cc[nH]c2c1=O (stereo not drawn) [Example 121]

row,IC50 [nM],Structure (SMILES)
1,2200,Cc1cc(CC(C)NC(=O)c2cn(C)c(=O)c3[nH]ccc23)on1 (stereo not drawn) [Example 122]
2,2900,Cn1cc(C(=O)NC2COCC2c2ccc(F)cc2)c2cc[nH]c2c1=O (stereo not drawn) [Example 124]
3,130,Cn1cc(C(=O)NC2CCCc3ccccc32)c2cc[nH]c2c1=O (stereo not drawn) [Example 125]
4,220,CC(NC(=O)c1cn(C)c(=O)c2[nH]ccc12)c1ccc(F)cc1 (stereo not drawn) [Example 129]
5,1600,Cn1cc(C(=O)NC(C)(C)c2ccccc2)c2cc[nH]c2c1=O [Example 131]
6,280,Cn1cc(C(=O)NCC2CN(C(=O)OC(C)(C)C)CCO2)c2cc[nH]c2c1=O (stereo not drawn) [Example 134]
7,400,"Cn1cc(C(=O)NCC2CCCN2C(=O)OC(C)(C)C)c2cc[nH]c2c1=O (stereo not drawn) [Example 136, tert-butyl 2-[[(6-methyl-7-oxo-1H-pyrrolo[2,3-c]pyridine-4-carbonyl)amino]methyl]pyrrolidine-1-carboxylate]"
8,310,Cn1cc(C(=O)NC2CCCN(C(=O)OC(C)(C)C)C2)c2cc[nH]c2c1=O (stereo not drawn) [Example 138]
9,1600,"CN(C(=O)c1cn(C)c(=O)c2[nH]ccc12)C1CCN(c2nccc(C#N)n2)CC1 [Example 146, N-[1-(4-cyanopyrimidin-2-yl)-4-piperidyl]-N,6-dimethyl-7-oxo-1H-pyrrolo[2,3-c]pyridine-4-carboxamide]"
10,4300,"C=CCn1cc(C(=O)N(C)C2CCN(c3nccc(C(F)(F)F)n3)CC2)c2cc[nH]c2c1=O [Example 159, 6-allyl-N-methyl-7-oxo-N-[1-[4-(trioromethyl)pyrimidin-2-yl]-4-piperidyl]-1H-pyrrolo[2,3-c]pyridine-4-carboxamide]"
11,2900,"C=CCn1cc(C(=O)N(C)C2CCN(c3ccncn3)CC2)c2cc[nH]c2c1=O [Example 161, 6-allyl-N-methyl-7-oxo-N-(1-pyrimidin-4-yl-4-piperidyl)-1H-pyrrolo[2,3-c]pyridine-4-carboxamide]"
12,15000,CC(C)N1CCC(CN(C)C(=O)c2cn(C)c(=O)c3[nH]ccc23)CC1 [Example 190]
13,4700,CC(C)CCN1CCC(N(C)C(=O)c2cn(C)c(=O)c3[nH]ccc23)CC1 [Example 217]
14,3300,CCCCn1cc(C(=O)NCC2CCN(C)CC2)c2cc[nH]c2c1=O [Example 248]
15,180,Cn1cc(C(=O)NCc2ccccc2)c2cc[nH]c2c1=O [Example 257]
16,600,CCCCn1cc(C(=O)NCc2ccccc2)c2cc[nH]c2c1=O [Example 259]
17,180,C/C=C/Cn1cc(C(=O)NCc2ccccc2)c2cc[nH]c2c1=O [Example 260]
18,480,Cn1cc(C(=O)NCc2ccc(F)cc2)c2cc[nH]c2c1=O [Example 263]
19,440,C[C@H](NC(=O)c1cn(C)c(=O)c2[nH]ccc12)c1ccccc1 [Example 264]

# Biological target: T2, BRD4(BD1) (Homo sapiens, UniProt O60885)
# T2 construct: 42-168 was cloned, expressed, and purified to; His; made in house
# Experiment: BRD4 AlphaLisa Binding Assay
# Text: IC50 Measurements for Inhibitors Using BRD4 AlphaLisa Binding Assay
row,IC50 [µM],Structure (SMILES)
1,4.9,"Cn1cc(C(=O)NCCN2CCOCC2)c2cc[nH]c2c1=O [Example 8, 6-methyl-N-(2-morpholinoethyl)-7-oxo-1H-pyrrolo[2,3-c]pyridine-4-carboxamide]"
2,17,"Cn1cc(C(=O)NCCCN2CCOCC2)c2cc[nH]c2c1=O [Example 31, 6-methyl-N-(3-morpholinopropyl)-7-oxo-1H-pyrrolo[2,3-c]pyridine-4-carboxamide]"
3,9.8,"CN1CCN(CCNC(=O)c2cn(C)c(=O)c3[nH]ccc23)CC1 [Example 32, 6-methyl-N-[2-(4-methylpiperazin-1-yl)ethyl]-7-oxo-1H-pyrrolo[2,3-c]pyridine-4-carboxamide]"
